Measurements from US20120122780A1 (Ardea Biosciences Inc., priority 2009, published 2012).

Molecular target: T1, hURAT1 Transporter (Homo sapiens, UniProt Q96S37)
T1 construct: Full-length human URAT1 gene (SLC22Al2) was subcloned from plasmid pCMV6-XL5 (Origene) into eukaryotic expression plasmid pCMV6/Neo; expressed in transfected cells
T1 sequence (Q96S37 1-553): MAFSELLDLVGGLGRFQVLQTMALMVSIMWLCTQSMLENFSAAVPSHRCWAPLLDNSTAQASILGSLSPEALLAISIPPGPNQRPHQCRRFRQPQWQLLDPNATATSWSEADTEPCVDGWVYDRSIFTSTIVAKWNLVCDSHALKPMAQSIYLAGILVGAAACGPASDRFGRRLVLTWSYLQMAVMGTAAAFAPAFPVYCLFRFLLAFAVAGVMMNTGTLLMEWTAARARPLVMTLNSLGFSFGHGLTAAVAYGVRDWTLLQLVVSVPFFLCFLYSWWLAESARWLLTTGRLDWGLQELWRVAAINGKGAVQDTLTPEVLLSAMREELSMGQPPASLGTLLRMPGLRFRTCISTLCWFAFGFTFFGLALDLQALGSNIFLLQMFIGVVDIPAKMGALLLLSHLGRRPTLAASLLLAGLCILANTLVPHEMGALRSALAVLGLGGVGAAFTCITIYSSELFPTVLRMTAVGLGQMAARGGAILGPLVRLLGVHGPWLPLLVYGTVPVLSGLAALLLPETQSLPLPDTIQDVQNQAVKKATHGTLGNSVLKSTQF
Test: Uric Acid Uptake Assay (URAT-1 EC50)
Format: cell-based
Conditions: HEK293/urat1 cells, C14 uric acid 40 μM, 10 minutes at room temperature
From the text: Creation of Stable Cell Lines Expressing hURAT1 Transporter: Full-length human URAT1 gene (SLC22Al2) was subcloned from plasmid pCMV6-XL5 (Origene) into eukaryotic expression plasmid pCMV6/Neo (Origene) using Not I restriction sites. Gene sequencing confirmed the sequence of hURAT1 as outlined in Genbank (Accession #NM_144585.2). HEK293 human embryonic kidney cells (ATCC# CRL-1573) were propagated in EMEM tissue culture medium as described by ATCC in an atmosphere of 5% CO2 and 95% air. Transfections of HEK293 cells with the pCMV6/Neo/URAT1 construct were performed using L2000 transfection reagent (Invitrogen) as described by the manufacturer. After 24 h the transfected cells were split into 10 cm tissue culture plates and grown for 1 day after which the medium was replaced with fresh growth medium containing G418 (Gibco) at 0.5 mg/ml final concentration. Drug-resistant colonies were selected after approximately 8 days and then tested for ^14C-uric acid transport activity. The HEK293/urat1 cells are plated on Poly-D-Lysine Coated 96-well Plates at a density of 75,000 cells per well. Cells were grown overnight (20-26 hours) at 37° C. in an incubator. Plates were allowed to come to room temperature and media was washed out with one wash of 250 μl of Wash Buffer (125 mM Na Gluconate, 10 mM Hepes ph 7.3). Compound or vehicle is added in assay buffer with C14 Uric Acid for a final concentration of 40 μM Uric Acid with a specific activity of 54 mCi/mmol Assay Buffer is 125 mM Sodium Gluconate, 4.8 mM Potassium Gluconate, 1.2 mM Potassium phosphate, monobasic, 1.2 mM magnesium sulfate, 1.3 mM Ca Gluconate, 5.6 mM Glucose, 25 mM HEPES, pH 7.3. Plates were incubated at room temperature for 10 minutes then washed 3 times with 50 μWash Buffer and 3 times with 250 μl Wash Buffer. Microscint 20 Scintillation Fluid was added and plates were incubated overnight at 45° C. to equilibrate. Plates are then read on the TopCount Plate Reader and an EC50 value generated. (See Enomoto et al, Nature, 2002, 417, 447-451 and Anzai et al, J. Biol. Chem., 2004, 279, 45942-45950.)
Compounds prepared as described above, were examined according to the procedure described herein and EC50 values generated. The table below summarizes the activity of the compounds in the Uric Acid Uptake Assay, wherein

Row | EC50 | SMILES
1 | > 20 µM | O=C(O)CSc1nnnn1-c1cccc2ccccc12 [6-1 (step D), 2-(1-(naphthalen-1-yl)-1H-tetrazol-5-ylthio)acetic acid]
2 | 5 to 20 µM | CCOC(=O)CSc1nnnn1-c1cccc2ccccc12 [6-1 (step C), Ethyl 2-(1-(naphthalen-1-yl)-1H-tetrazol-5-ylthio) acetate]
3 | > 20 µM | CC(C)(Oc1nnnn1-c1cccc2ccccc12)C(=O)O [Example 6-3]
4 | > 20 µM | O=C(O)CSc1cnnn1-c1cccc2ccccc12 [Example 5A-1]
